Data taken from patent US20250221413A1, “Use and Preparation Method of Sulfoxamyl, and Oxidation System” (priority 2023, published 2025).
Values joined by “and” are separate entries in the source; they are usually repeats but may differ in a detail not shown here. Equal values may be shown once. “Also recorded” adds a separate entry of the source.

Assays:
[1] = Acute oral toxicity test, probability unit method (Bliss method), LD50 by Probit regression; type: in vivo, SD rats; conditions: both sexes, Sprague-Dawley, rat, in vivo, po; SD rats, Probit regression
Protocol: (§1) Materials: the test agent 98% sulfoxamyl technical, batch number 20230708-1, was provided by Ningxia Hugerise Chemical Co., Ltd. Experimental animals: SPF-grade SD rats, half male and half female, weighing 180 g to 220 g, were provided by Jinan Pengyue Experimental Animal Breeding Co., Ltd., license number SCXK (Lu) 20190003. Rearing environment: the rats were housed in an SPF-grade animal room with free access to water and food, a temperature of 20° C. to 25° C., a humidity of 40% to 60%, and a 12 h/12 h light cycle. Feed: conventional pellet feed was provided by Jinan Pengyue Experimental Animal Breeding Co., Ltd.
(§2) The test was conducted in accordance with “Toxicological test methods of pesticides for registration, GB15670.5-2017”, “Acute toxicity test, GB15193.3-2003” and relevant acute toxicity research data.
(§3) Methods: a single oral fixed-dose procedure was conducted to preliminarily explore the toxic dose range of sulfoxamyl. LD50 and confidence limits were calculated by using the probability unit method (Bliss method). SD rats were randomly divided into 5 groups, 10 rats in each group, half of them were male and half were female. The dosages administered to each group were 474.61 mg/kg, 632.81 mg/kg, 843.75 mg/kg, 1,125 mg/kg, and 1,500 mg/kg. The common ratio value among each dose group was 0.75. After a single oral administration, the mortality rate of the experimental animals was recorded within 24 h and 14 days after administration, while the general condition of the animals was observed, and the food intake and body weight changes were recorded.
(§4) According to the above test dose, number of animals, number of deaths and other data, SPSS statistical software was used to calculate LD50 by Probit regression, and the results are shown in Table 3.

SD rats = assay: as above; type: in vivo; conditions: for Death count: 24 h
Protocol: as §1, §2, §3, §4

CNC(=O)O/N=C(/C(=O)N(C)C)S(C)(=O)=O [Sulfoxamyl, N,N-dimethyl-2-[[[(methylamino)carbonyl]oxy]imino]-2-(methylsulfonyl)acetamide]
LD50 at 14 days [1]: 822 mg/kg
toxicity level (acute oral) (SD rats; GB15670-1995 classification): low toxic; also recorded: Low Toxicity
Probit Estimation for dose (SD rats; Probability 0.010): 379.474 mg/kg
Probit Estimation for log(dose) (SD rats; Probability 0.010): 2.579
Probit Estimation for dose (SD rats; Probability 0.020): 415.442 mg/kg
Probit Estimation for log(dose) (SD rats; Probability 0.020): 2.619
Probit Estimation for dose (SD rats; Probability 0.030): 440.010 mg/kg
Probit Estimation for log(dose) (SD rats; Probability 0.030): 2.643
Probit Estimation for dose (SD rats; Probability 0.040): 459.445 mg/kg
Probit Estimation for log(dose) (SD rats; Probability 0.040): 2.662
Probit Estimation for dose (SD rats; Probability 0.050): 475.885 mg/kg
Probit Estimation for log(dose) (SD rats; Probability 0.050): 2.678
Probit Estimation for dose (SD rats; Probability 0.060): 490.341 mg/kg
Probit Estimation for log(dose) (SD rats; Probability 0.060): 2.690
Probit Estimation for dose (SD rats; Probability 0.070): 503.377 mg/kg
Probit Estimation for log(dose) (SD rats; Probability 0.070): 2.702
Probit Estimation for dose (SD rats; Probability 0.080): 515.342 mg/kg
Probit Estimation for log(dose) (SD rats; Probability 0.080): 2.712
Probit Estimation for dose (SD rats; Probability 0.090): 526.471 mg/kg
Probit Estimation for log(dose) (SD rats; Probability 0.090): 2.721
Probit Estimation for dose (SD rats; Probability 0.100): 536.928 mg/kg
Probit Estimation for log(dose) (SD rats; Probability 0.100): 2.730
Probit Estimation for dose (SD rats; Probability 0.150): 582.478 mg/kg
Probit Estimation for log(dose) (SD rats; Probability 0.150): 2.765
Probit Estimation for dose (SD rats; Probability 0.200): 621.421 mg/kg
Probit Estimation for log(dose) (SD rats; Probability 0.200): 2.793
Probit Estimation for dose (SD rats; Probability 0.250): 656.898 mg/kg
Probit Estimation for log(dose) (SD rats; Probability 0.250): 2.817
Probit Estimation for dose (SD rats; Probability 0.300): 690.481 mg/kg
Probit Estimation for log(dose) (SD rats; Probability 0.300): 2.839
Probit Estimation for dose (SD rats; Probability 0.350): 723.131 mg/kg
Probit Estimation for log(dose) (SD rats; Probability 0.350): 2.859
Probit Estimation for dose (SD rats; Probability 0.400): 755.539 mg/kg
Probit Estimation for log(dose) (SD rats; Probability 0.400): 2.878
Probit Estimation for dose (SD rats; Probability 0.450): 788.276 mg/kg
Probit Estimation for log(dose) (SD rats; Probability 0.450): 2.897
Probit Estimation for dose (SD rats; Probability 0.500): 821.879 mg/kg
Probit Estimation for log(dose) (SD rats; Probability 0.500): 2.915
Probit Estimation for dose (SD rats; Probability 0.550): 856.914 mg/kg
Probit Estimation for log(dose) (SD rats; Probability 0.550): 2.933
Probit Estimation for dose (SD rats; Probability 0.600): 894.044 mg/kg
Probit Estimation for log(dose) (SD rats; Probability 0.600): 2.951
Probit Estimation for dose (SD rats; Probability 0.650): 934.112 mg/kg
Probit Estimation for log(dose) (SD rats; Probability 0.650): 2.970
Probit Estimation for dose (SD rats; Probability 0.700): 978.282 mg/kg
Probit Estimation for log(dose) (SD rats; Probability 0.700): 2.990
Probit Estimation for dose (SD rats; Probability 0.750): 1028.295 mg/kg
Probit Estimation for log(dose) (SD rats; Probability 0.750): 3.012
Probit Estimation for dose (SD rats; Probability 0.800): 1087.001 mg/kg
Probit Estimation for log(dose) (SD rats; Probability 0.800): 3.036
Probit Estimation for dose (SD rats; Probability 0.850): 1159.674 mg/kg
Probit Estimation for log(dose) (SD rats; Probability 0.850): 3.064
Probit Estimation for dose (SD rats; Probability 0.900): 1258.055 mg/kg
Probit Estimation for log(dose) (SD rats; Probability 0.900): 3.100
Main clinical symptom (SD rats; oral 474.61 mg/kg): Asymptomatic
Death count (SD rats; oral 474.61 mg/kg, 474.61 mg/kg): no experimental animals and 0/10
Main clinical symptom (SD rats; oral 632.81 mg/kg): Intense abdominal breathing,
Death count (SD rats; oral 632.81 mg/kg, 632.81 mg/kg): 3 and 3/10
Main clinical symptom (SD rats; oral 843.75 mg/kg): Intense abdominal breathing, malaise, drooling, tremors
Death count (SD rats; oral 843.75 mg/kg, 843.75 mg/kg): 6 and 6/10
Main clinical symptom (SD rats; oral 1125 mg/kg): Intense abdominal breathing, malaise, drooling, tremors
Death count (SD rats; oral 1125 mg/kg, 1125 mg/kg): 7 and 8/10
Main clinical symptom (SD rats; oral 1500 mg/kg): Intense abdominal breathing,
Death count (SD rats; oral 1500 mg/kg, 1500 mg/kg): all animals and 10/10
new deaths 14 days after administration compared to 24 h (SD rats; oral, all dose groups): no new deaths
